Data published in the supplement of paper PMC10627819.

Columns and labels:
S. pneumoniae D39V [1] = assay: fitness (endpoint OD595 vs no drug) (fraction); higher = more growth
Summary of the method: (§1)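 Fitness is computed from the optical density at which cultures reach stationary phase, divided by the robust mean of no-drug control wells. Any value above 1 is set to 1. Cultures started at OD595 0.01 in 384-well plates with TSB, LB Lennox or CY at 37 °C, and OD595 was read every 30 min for 14 h against a first-reading background.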

S. aureus Newman [2] = assay: as above
Summary of the method: as §1

S. aureus DSM 20231 = assay: Bliss interaction score (quartile over a dose matrix) (fitness difference); higher = more antagonism (negative = synergy)
Summary of the method: (§2)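 Quartiles of the Bliss score were taken over technical, biological and donor/recipient replicates. That score is observed fitness minus the product of the single-drug fitness values, which were inferred from combination data. Fitness itself is OD595 at entry into stationary phase divided by the plate's robust no-drug mean, with a cap at 1.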

S. pneumoniae D39V [3] = assay: as above
Summary of the method: as §2

B. subtilis 168 = assay: as above
Summary of the method: as §2

S. aureus Newman [4] = assay: as above
Summary of the method: as §2
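Throughout, for Bliss interaction score (quartile over a dose matrix): first quartile when negative (synergy) and third quartile when positive (antagonism).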

O=C(O)c1cn(C2CC2)c2cc(N3CCNCC3)c(F)cc2c1=O [Ciprofloxacin] + CN[C@H](CC(C)C)C(=O)N[C@H]1C(=O)N[C@@H](CC(N)=O)C(=O)N[C@H]2C(=O)N[C@H]3C(=O)N[C@H](C(=O)N[C@H](C(=O)O)c4cc(O)cc(O)c4-c4cc3ccc4O)[C@H](O)c3ccc(c(Cl)c3)Oc3cc2cc(c3O[C@@H]2O[C@H](CO)[C@@H](O)[C@H](O)[C@H]2O[C@H]2C[C@](C)(N)[C@H](O)[C@H](C)O2)Oc2ccc(cc2Cl)[C@H]1O [Vancomycin]
Conditions | fitness
S. aureus Newman [2], first compound 0.0375 µg/mL, partner 0.1875 µg/mL | 0.75
S. aureus Newman [2], first compound 0.0375 µg/mL, partner 0.375 µg/mL | 0.77
S. aureus Newman [2], first compound 0.0375 µg/mL, partner 0.75 µg/mL | 0.725
S. aureus Newman [2], first compound 0.075 µg/mL, partner 0.1875 µg/mL | 0.718
S. aureus Newman [2], first compound 0.075 µg/mL, partner 0.375 µg/mL | 0.682
S. aureus Newman [2], first compound 0.075 µg/mL, partner 0.75 µg/mL | 0.663
S. aureus Newman [2], first compound 0.15 µg/mL, partner 0.1875 µg/mL | 0.07
S. aureus Newman [2], first compound 0.15 µg/mL, partner 0.375 µg/mL | 0.0567
S. aureus Newman [2], first compound 0.15 µg/mL, partner 0.75 µg/mL | 0.0797
S. pneumoniae D39V [1], first compound 0.125 µg/mL, partner 0.03125 µg/mL | 0.943
S. pneumoniae D39V [1], first compound 0.125 µg/mL, partner 0.0625 µg/mL | 0.881
S. pneumoniae D39V [1], first compound 0.125 µg/mL, partner 0.125 µg/mL | 0.885
S. pneumoniae D39V [1], first compound 0.125 µg/mL, partner 0.25 µg/mL | 0.0814
S. pneumoniae D39V [1], first compound 0.125 µg/mL, partner 0.5 µg/mL | 0.034
S. pneumoniae D39V [1], first compound 0.25 µg/mL, partner 0.03125 µg/mL | 0.845
S. pneumoniae D39V [1], first compound 0.25 µg/mL, partner 0.0625 µg/mL | 0.826
S. pneumoniae D39V [1], first compound 0.25 µg/mL, partner 0.125 µg/mL | 0.82
S. pneumoniae D39V [1], first compound 0.5 µg/mL, partner 0.03125 µg/mL | 0.58
S. pneumoniae D39V [1], first compound 0.5 µg/mL, partner 0.0625 µg/mL | 0.585
S. pneumoniae D39V [1], first compound 0.5 µg/mL, partner 0.25 µg/mL | 0.158
S. pneumoniae D39V [1], first compound 0.5 µg/mL, partner 0.5 µg/mL | 0.0552

S. pneumoniae D39V [1], first compound 0.25 µg/mL, one replicate
Conditions | fitness
partner 0.25 µg/mL | 0.0819
partner 0.5 µg/mL | 0.0016

Conditions | Bliss interaction score
B. subtilis 168 | -0.0465
S. aureus DSM 20231 | 0.0479
S. aureus Newman [4] | -0.0715
S. pneumoniae D39V [3] | -0.106

CO/N=C(\C(=O)N[C@@H]1C(=O)N2C(C(=O)O)=C(COC(C)=O)CS[C@H]12)c1csc(N)n1 [Cefotaxime] + C/C(=C\C(=O)OCCCCCCCCC(=O)O)C[C@@H]1OC[C@H](C[C@@H]2O[C@H]2[C@@H](C)[C@H](C)O)[C@@H](O)[C@H]1O [Pseudomonic acid]
fitness, S. pneumoniae D39V [1]
Conditions | first compound 0.0018 µg/mL | first compound 0.0035 µg/mL | first compound 0.007 µg/mL
partner 0.03 µg/mL | 0.978 | 0.962 | 0.962
partner 0.06 µg/mL | 0.833 | 0.862 | 0.809
partner 0.12 µg/mL | 0.551 | 0.56 | 0.517

fitness, S. aureus Newman [2], one replicate
Conditions | first compound 0.078 µg/mL | first compound 0.156 µg/mL | first compound 0.312 µg/mL
partner 0.0313 µg/mL | 0.054 | 0.0458 | 0.0509
partner 0.0625 µg/mL | 0.0409 | 0.0394 | 0.0414
partner 0.125 µg/mL | 0.0477 | 0.0707 | 0.0616

Conditions | Bliss interaction score
B. subtilis 168 | 0.0549
S. aureus DSM 20231 | 0.0223
S. aureus Newman [4] | 0.022
S. pneumoniae D39V [3] | 0.0643
